The assay concerns L1210 leukemia ip in BDF1 mice, survival T/C. Briefly: NCI In Vivo Anticancer Drug Screen. Data for tumor model L1210 Leukemia (intraperitoneal) in B6D2F1 (BDF1) mice. As to conditions: endpoint: mean survival time, higher = longer survival. In a few lines: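 Transplantable tumor model; survival measured in treated vs vehicle control mice. Value = treated/control.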
The mark [1] stands for this setting: dose: 100.0 mg/kg/injection, schedule: Q01DX009 (ip), vehicle: saline with Tween-80.
Setting [2] is: dose: 200.0 mg/kg/injection, schedule: Q01DX009 (ip), vehicle: saline with Tween-80.
[3] abbreviates: dose: 400.0 mg/kg/injection, schedule: Q01DX009 (ip), vehicle: saline with Tween-80.
The mark [4] stands for this setting: dose: 200.0 mg/kg/injection, schedule: Q04DX003 (ip), vehicle: saline with Tween-80.

Inconclusive results and toxic doses are left out.

Experimental findings from PubChem BioAssay AID248 (DTP/NCI, 2004) are described below.

On to `OCCNc1ccc(I)cc1`, for which the T/C under setting [1] was 90 % of control, the T/C under setting [2] was 92 % of control and the T/C under setting [3] is 87 % of control.

Regarding `N#CCCCN1C(=O)c2ccccc2S1(=O)=O`, the T/C was 98 % of control (dose: 44.0 mg/kg/injection, schedule: Q01DX Z (ip), vehicle: methylcellulose (MC)); 120 % of control (dose: 66.0 mg/kg/injection, schedule: Q01DX Z (ip), vehicle: methylcellulose (MC)); 98 % of control (dose: 100.0 mg/kg/injection, schedule: Q01DX Z (ip), vehicle: methylcellulose (MC)).

Turning to `CN(C)C(=O)Nc1cccc(OP(=O)(Oc2ccccc2)Oc2ccccc2)c1`, the T/C is, setting by setting: (dose: 100.0 mg/kg/injection, schedule: Q04DX003 (ip), vehicle: Klucel (hydroxypropylcellulose) (HPC)) 91 % of control; (dose: 200.0 mg/kg/injection, schedule: Q04DX003 (ip), vehicle: Klucel (hydroxypropylcellulose) (HPC)) 94 % of control; (dose: 400.0 mg/kg/injection, schedule: Q04DX003 (ip), vehicle: Klucel (hydroxypropylcellulose) (HPC)) 98 % of control.

For the compound `C[PH+](c1ccccc1)c1ccccc1.C[PH+](c1ccccc1)c1ccccc1.O=C([S-])[S-].[Pd+2]`, the T/C reads like this: (dose: 50.0 mg/kg/injection, schedule: Q04DX003 (ip), vehicle: saline) 100 % of control; (dose: 100.0 mg/kg/injection, schedule: Q04DX003 (ip), vehicle: saline) 100 % of control; (dose: 200.0 mg/kg/injection, schedule: Q04DX003 (ip), vehicle: saline) 94 % of control.

For the compound `O=Cc1cccs1`, the T/C under setting [1] was 104 % of control; the T/C (dose: 100.0 mg/kg/injection, schedule: Q04DX002 (ip), vehicle: saline with Tween-80) was 93 % of control; the T/C under setting [2] is 107 % of control; the T/C (dose: 200.0 mg/kg/injection, schedule: Q04DX002 (ip), vehicle: saline with Tween-80) was 100 % of control; the T/C under setting [3] was 118 % of control; the T/C (dose: 400.0 mg/kg/injection, schedule: Q04DX002 (ip), vehicle: saline with Tween-80) is 96 % of control.

`COC1OC2COC(c3ccccc3)OC2C(=O)C1OS(=O)(=O)c1ccc(C)cc1` (stereo not given): the T/C by setting is: under setting [4], 89 % of control; (dose: 400.0 mg/kg/injection, schedule: Q04DX003 (ip), vehicle: saline with Tween-80) 86 % of control.

`Nc1cc(N)c(O)c(N)c1`: the T/C is 103 % of control (dose: 0.5 mg/kg/injection, schedule: Q04DX003 (ip), vehicle: saline); 105 % of control (dose: 1.0 mg/kg/injection, schedule: Q04DX003 (ip), vehicle: saline); 95 % of control (dose: 1.25 mg/kg/injection, schedule: Q01DX009 (ip), vehicle: saline); 111 % of control (dose: 2.0 mg/kg/injection, schedule: Q04DX003 (ip), vehicle: saline); 90 % of control (dose: 2.5 mg/kg/injection, schedule: Q01DX009 (ip), vehicle: saline); 97 % of control (dose: 5.0 mg/kg/injection, schedule: Q01DX009 (ip), vehicle: saline).

On to `CN=C(N)c1ccc(NC(=O)c2ccc(C(=O)Nc3ccc(C(N)=NC)cc3)c(N)c2)cc1`, for which the T/C is 104 % of control (dose: 0.37 mg/kg/injection, schedule: Q01DX Z (ip), vehicle: water); 121 % of control (dose: 0.75 mg/kg/injection, schedule: Q01DX Z (ip), vehicle: water); 123 % of control (dose: 1.5 mg/kg/injection, schedule: Q01DX Z (ip), vehicle: water); 154 % of control (dose: 1.75 mg/kg/injection, schedule: Q01DX Z (ip), vehicle: water); 189 % of control (dose: 2.0 mg/kg/injection, schedule: Q01DX Z (ip), vehicle: carboxymethylcellulose (CMC)); 218 % of control (dose: 4.0 mg/kg/injection, schedule: Q01DX Z (ip), vehicle: carboxymethylcellulose (CMC)). Further, the T/C (dose: 6.0 mg/kg/injection, schedule: Q01DX Z (ip), vehicle: carboxymethylcellulose (CMC)) is 184 % of control; the T/C (dose: 6.7 mg/kg/injection, schedule: Q01DX001 (sc), vehicle: water) is 110 % of control; the T/C (dose: 8.0 mg/kg/injection, schedule: Q01DX Z (ip), vehicle: carboxymethylcellulose (CMC)) was 170 % of control; the T/C (dose: 10.0 mg/kg/injection, schedule: Q01DX001 (sc), vehicle: water) was 107 % of control; the T/C (dose: 10.0 mg/kg/injection, schedule: Q01DX Z (ip), vehicle: carboxymethylcellulose (CMC)) is 107 % of control; the T/C (dose: 12.0 mg/kg/injection, schedule: Q01DX Z (ip), vehicle: carboxymethylcellulose (CMC)) is 96 % of control. Moreover, the T/C is 88 % of control (dose: 14.0 mg/kg/injection, schedule: Q01DX Z (ip), vehicle: carboxymethylcellulose (CMC)); 119 % of control (dose: 15.0 mg/kg/injection, schedule: Q01DX001 (sc), vehicle: water); 110 % of control (dose: 25.0 mg/kg/injection, schedule: Q01DX Z (oral), vehicle: water); 100 % of control (dose: 50.0 mg/kg/injection, schedule: Q01DX Z (oral), vehicle: water); 97 % of control (dose: 100.0 mg/kg/injection, schedule: Q01DX Z (oral), vehicle: water); 110 % of control (dose: 200.0 mg/kg/injection, schedule: Q01DX Z (oral), vehicle: water).

On to `OC1COC(OCc2ccccc2)C(O)C1O` (stereo not given), for which the T/C is 101 % of control (dose: 100.0 mg/kg/injection, schedule: Q01DX001 (ip), vehicle: Klucel (hydroxypropylcellulose) (HPC)); 101 % of control (dose: 100.0 mg/kg/injection, schedule: Q04DX003 (ip), vehicle: saline with Tween-80); 96 % of control (dose: 200.0 mg/kg/injection, schedule: Q01DX001 (ip), vehicle: Klucel (hydroxypropylcellulose) (HPC)); 100 % of control under setting [4]; 101 % of control (dose: 400.0 mg/kg/injection, schedule: Q01DX001 (ip), vehicle: Klucel (hydroxypropylcellulose) (HPC)).

With `CC(=O)NC(CCC(N)=O)C(=O)O` (stereo not given), the T/C runs as follows: (dose: 100.0 mg/kg/injection, schedule: Q04DX002 (ip), vehicle: saline) 99 % of control; (dose: 200.0 mg/kg/injection, schedule: Q04DX002 (ip), vehicle: saline) 89 % of control; (dose: 400.0 mg/kg/injection, schedule: Q04DX002 (ip), vehicle: saline) 96 % of control.

Consider `C\C(=C/C(=N/N=C/c1ccco1)c1ccccc1)c1ccccc1`, for which the T/C (dose: 75.0 mg/kg/injection, schedule: Q01DX001 (ip), vehicle: saline) is 103 % of control and the T/C (dose: 150.0 mg/kg/injection, schedule: Q01DX001 (ip), vehicle: saline) was 104 % of control.

Consider `C=CCCCCCCCCC(=O)NCCCN1CCOCC1`, for which the T/C is 103 % of control (dose: 50.0 mg/kg/injection, schedule: Q01DX009 (ip), vehicle: saline with Tween-80) and 103 % of control under setting [1].

With `CCC(Nc1ccccc1)Nc1ccccc1`, the T/C by setting is: (dose: 100.0 mg/kg/injection, schedule: Q04DX003 (ip), vehicle: acetone) 112 % of control; (dose: 200.0 mg/kg/injection, schedule: Q04DX003 (ip), vehicle: acetone) 87 % of control; (dose: 400.0 mg/kg/injection, schedule: Q04DX003 (ip), vehicle: acetone) 94 % of control.

With `O=C(O)CNC(=O)c1ccc(NC(=O)CBr)cc1`, the T/C was 104 % of control (dose: 50.0 mg/kg/injection, schedule: Q01DX001 (ip), vehicle: saline); 104 % of control (dose: 100.0 mg/kg/injection, schedule: Q01DX001 (ip), vehicle: saline); 109 % of control (dose: 200.0 mg/kg/injection, schedule: Q01DX001 (ip), vehicle: saline).

On to `COc1cc2c(c(OC)c1OC)c(=O)c1ccccc1n2C`, for which the T/C by setting is: (dose: 50.0 mg/kg/injection, schedule: Q01DX Z (ip), vehicle: carboxymethylcellulose (CMC)) 97 % of control; (dose: 100.0 mg/kg/injection, schedule: Q01DX Z (ip), vehicle: carboxymethylcellulose (CMC)) 103 % of control; (dose: 200.0 mg/kg/injection, schedule: Q01DX Z (ip), vehicle: carboxymethylcellulose (CMC)) 101 % of control.
